These results are taken from patent US20090169487A1, “Essential Oil Diffusion” (priority 2007, published 2009).

Assay [1] can be described thus: Case report: diffused essential oils after NAC and Dornase Alfa in a child with RSV, oxygen requirement and atelectasis. It is filed as in vivo, human. To be noted: for Overall response of oxygen requirement to treatment: summary of the case. The source says: They experienced a three day prodrome of upper and lower respiratory symptoms and increasing oxygen requirement treated initially at home. They were admitted to a local hospital 7 days prior to the current admission where they continued to received oxygen and was started on a 7 day antibiotic course despite a positive respiratory direct fluorescent antibody test for RSV. They were discharged home on 3 liters oxygen and persistent left upper lobe atelectasis. They presented to our pediatric intensive care unit (PICU) within 12 hours of discharge with respiratory distress and central cyanosis, pulse oximetry oxygen saturation (spO2) 83% off oxygen, 88% on 3 liters per minute (LPM) oxygen.
Past medical history was significant for titanium rib insertion for restrictive lung disease, metal rods for thoracic scoliosis, hip repair for hip dislocation, and gastric feeding tube placement. Their home medication regimen included a multivitamin, calcium carbonate, and levalbuterol 1 unit dose nebulized every 8 hours. Lasix had been added during the prior hospitalization.
MW was placed on 6 liters humidified, high-flow nasal canula oxygen (NC O2), achieving a spO2 of 93-98%. […] pulmonary toilet regimen consisted of percussor chest physiotherapy every four hours and postural drainage. On day 4 of admission, day 14 of oxygen requirement, nebulized 20% n-acetyl cysteine (NAC) every eight hours was added. Oxygen requirement began to improve over the next 24 hours, weaning to 2 LPM NC O2, but returned to 3 LPM when […] remained persistently below spO2 93%. Nebulized Dornase Alfa 2.5 mg every twelve hours was added on day 7, day 17 of oxygen requirement. Oxygen requirement remained at 3 LPM with frequent desaturations to the mid 80's despite the intensification of mucolytic therapy.
On day 8, the previous treatments were discontinued and the essential oil mixture described in TABLE 1, above, including Lavandula latifolia (spike lavender), Thymus mastichina (Spanish marjoram), Abies balsamea (balsam fir), and Mentha×piperita (peppermint) was nebulized at the parents' request. Three drops were applied to a fibrous filter inserted into the base of a fan diffuser (Fan Fuser, Cinegraph, Inc. Seal Beach, Calif.). The mixture was diffused every six hours into the room and passively inhaled by MW. Oxygen requirement was reduced to 1.5 LPM within 12 hours. […] MW was weaned to ¼ LPM NC O2 on the second day of use wand discharged home with an spO2 of 97%, on day 10 of admission, day 20 of oxygen requirement.

The conditions of assay [2]: asthmatics, double-blind randomized control trial; cited from earlier work.

`CC(=O)N[C@@H](CS)C(=O)O` [n-acetyl cysteine (NAC), N-Acetyl Cysteine]: the “Oxygen requirement returned to” value in assay [1] (on NAC, when they remained persistently below spO2 93%) was 3 LPM. For the same molecule, the “Oxygen requirement (NC O2)” value in assay [1] (over the next 24 hours after adding nebulized 20% NAC every eight hours, from 6 liters high-flow) came to 2 LPM. Besides, the “Overall response of oxygen requirement to treatment” value in assay [1] is “insufficient or worsening response”.

Take `CC12CCC(CC1)C(C)(C)O2` [eucalyptol, 1,8 cineole]: the Steroid-sparing effect result in assay [2] is recorded as “steroid-sparing effects”.

B1: Dornase Alfa: recombinant human DNase which decreases the viscoelasticity of mucous (protein, UniProt P24855 23-282, looked up)
Deoxyribonuclease-1: LKIAAFNIQTFGETKMSNATLVSYIVQILSRYDIALVQEVRDSHLTAVGKLLDNLNQDAPDTYHYVVSEPLGRNSYKERYLFVYRPDQVSAVDSYYYDDGCEPCGNDTFNREPAIVRFFSRFTEVREFAIVPLHAAPGDAVAEIDALYDVYLDVQEKWGLEDVMLMGDFNAGCSYVRPSQWSSIRLWTSPTFQWLIPDSADTTATPTHCAYDRIVVAGMLLRGAVVPDSALPFNFQAAYGLSDQLAQAISDHYPVEVMLK
For the molecule B1, in assay [1] (frequent desaturations despite intensified mucolytic therapy (NAC plus Dornase Alfa)), the “Desaturations (spO2)” value is reported as “mid 80's”. Moreover, the Oxygen requirement in assay [1] (nebulized 2.5 mg every twelve hours added on day 7, on top of NAC) is listed as 3 LPM. Further, the “Overall response of oxygen requirement to treatment” value in assay [1] was “insufficient or worsening response”.
